Test results published in patent US20230416225A1, “DIAMINOPYRIMIDINE CARBOXAMIDE INHIBITORS OF HPK1” (MERCK SHARP & DOHME LLC, priority 2020, published 2023).

Target: T1, Human HPK1, catalytic domain (Homo sapiens, UniProt Q92918)
T1 construct: purchased Carna
T1 sequence (Q92918 1-346): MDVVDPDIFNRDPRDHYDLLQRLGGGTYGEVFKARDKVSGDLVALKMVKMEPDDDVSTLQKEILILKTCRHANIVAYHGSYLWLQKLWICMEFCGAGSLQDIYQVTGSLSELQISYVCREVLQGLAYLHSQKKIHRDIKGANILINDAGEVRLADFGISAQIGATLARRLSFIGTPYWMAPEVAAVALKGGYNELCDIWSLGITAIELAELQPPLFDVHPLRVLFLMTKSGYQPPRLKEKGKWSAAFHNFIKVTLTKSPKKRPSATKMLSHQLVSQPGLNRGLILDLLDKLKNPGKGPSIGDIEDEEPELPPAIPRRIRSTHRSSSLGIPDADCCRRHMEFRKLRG
Assay: HPK1-SLP76 TR-FRET assay
Assay type: biochemical
Conditions: 75 pM HPK1, 10 uM ATP, 10 nM SLP76, 30 min compound pre-incubation

| IC50 [nM] | SMILES |
| --- | --- |
| 1.04 | COc1cc2c(cc1Nc1ncc(C(N)=O)c(Nc3cccc(Cl)c3)n1)CN(C)CC2 [Example 7-25, 4-[(3-chlorophenyl)amino]-2-[(6-methoxy-2-methyl-1,2,3,4-tetrahydroisoquinolin-7-yl)amino]pyrimidine-5-carboxamide] |
| 4.17 | N#CC1(c2ccc(Nc3ncc(C(N)=O)c(Nc4ccccc4CO)n3)cc2)CC1 [Example 7-108, 2-{[4-(1-cyanocyclopropyl)phenyl]amino}-4-{[2-(hydroxymethyl)phenyl]amino}py-rimidine-5-carboxamide] |
| 18.5 | CCn1ncc(C)c1Nc1nc(Nc2cc3c(cc2OC)CCN(C)C3)ncc1C(N)=O [Example 7-93, 4-((1-ethyl-4-methyl-1H-pyrazol-5-yl)amino)-2-((6-methoxy-2-methyl-1,2,3,4-tetrahydroisoquinolin-7-yl)amino)pyrimidine-5-carboxamide] |
| 56 | COc1nn(CC(F)(F)F)cc1Nc1ncc(C(N)=O)c(Nc2cccc3c2CCN(C)C3)n1 [Example 7-62, 2-{[3-methoxy-1-(2,2,2-trifluoroethyl)-1H-pyrazol-4-yl]amino}-4-[(2-methyl-1,2,3,4-tetrahydroisoquinolin-5-yl)amino]pyrimidine-5-carboxamide] |
| 0.6 | COC(=O)C1CC2CC(CC(Nc3nc(Nc4cc5c(cc4OC)CCN(C)C5)ncc3C(N)=O)C2)C1 (centres unmarked) [Example 26-13, methyl 7-({5-carbamoyl-2-[(6-methoxy-2-methyl-1,2,3,4-tetrahydroisoquinolin-7-yl)amino]pyrimidin-4-yl}amino)bicyclo[3.3.1]nonane-3-carboxylate] |
| 284 | COC(=O)N1CCc2cc(OC)c(Nc3ncc(C(N)=O)c(Nc4ccccc4Br)n3)cc2C1 [Example 12-12, methyl 7-({4-[(2-bromophenyl)amino]-5-carbamoylpyrimidin-2-yl}amino)-6-methoxy-3,4-dihydroisoquinoline-2(1H)-carboxylate] |
| 63.8 | NC(=O)c1cnc(Nc2ccc3c(c2)C(=O)OCC3)nc1Nc1ccccc1Br [Example 7-106, 4-[(2-bromophenyl)amino]-2-[(1-oxo-3,4-dihydro-1H-2-benzopyran-7-yl)amino]pyrimidine-5-carboxamide] |
| 2.54 | COc1cc2c(cc1Nc1ncc(C(N)=O)c(Nc3c(C)cccc3F)n1)CN(CC(C)(C)O)CC2 [Example 5-2] |
| 105 | CCn1nc(C)cc1Nc1nc(Nc2cc3c(cc2OC)CCN(C)C3)ncc1C(N)=O [Example 7-79, 4-((1-ethyl-3-methyl-1H-pyrazol-5-yl)amino)-2-((6-methoxy-2-methyl-1,2,3,4-tetrahydroisoquinolin-7-yl)amino)pyrimidine-5-carboxamide] |
| 404 | NC(=O)c1cnc(NCc2ccc(C(F)(F)F)cc2)nc1Nc1cccc2c1CCNC2=O [Example 25-38, 4-[(1-oxo-1,2,3,4-tetrahydroisoquinolin-5-yl)amino]-2-({[4-(trifluoromethyl)phenyl]methyl}amino)pyrimidine-5-carboxamide] |
| 0.38 | COc1cc2c(cc1Nc1ncc(C(N)=O)c(Nc3ccc(C)cc3Cl)n1)CN(C)CC2 [Example 4-19, 4-[(2-chloro-4-methylpheny 1)amino]-2-[(6-methoxy-2-methyl-1,2,3,4-tetrahydroisoquinolin-7-yl)amino]pyrimidine-5-carboxamide] |
| 29.7 | COc1cc2c(cc1Nc1ncc(C(N)=O)c(N[C@@H]3CCCc4cc(F)ccc43)n1)CN(C)CC2 [Example 26-46, 4-{[(1R)-6-fluoro-1,2,3,4-tetrahydronaphthalen-1-yl]amino}-2-[(6-methoxy-2-methyl-1,2,3,4-tetrahydroisoquinolin-7-yl)amino]pyrimidine-5-carboxamide] |
| 5.05 | CC(C)N1CCn2nc(Nc3ncc(C(N)=O)c(Nc4cccc5c4CCNC5)n3)cc2CC1=O [Example 24-1, 2-((6-isopropyl-5-oxo-5,6,7,8-tetrahydro-4H-pyrazolo[1,5-d][1,4]diazepin-2-yl)amino)-4-((1,2,3,4-tetrahydroisoquinolin-5-yl)amino)pyrimidine-5-carboxamide] |
| 2.49 | COc1cc2c(cc1Nc1ncc(C(N)=O)c(N[C@@H](C)c3cccc(F)c3F)n1)CN(C)CC2 [Example 26-19, 4-{[(1S)-1-(2,3-difluorophenyl)ethyl]amino}-2-[(6-methoxy-2-methyl-1,2,3,4-tetrahydroisoquinolin-7-yl)amino]pyrimidine-5-carboxamide] |
| 92.1 | NC(=O)c1cnc(Nc2ccc3c(c2)COC3=O)nc1N[C@H](CO)c1ccccc1 [Example 26-44, 4-{[(1S)-2-hydroxy-1-phenylethyl]amino}-2-[(1-oxo-1,3-dihydro-2-benzofuran-5-yl)amino]pyrimidine-5-carboxamide] |
| 19.5 | NC(=O)c1cnc(Nc2cnn(CC(F)(F)F)c2)nc1Nc1cccc2c1CCNC2=O [Example 7-45, 4-[(1-oxo-1,2,3,4-tetrahydroisoquinolin-5-yl)amino]-2-{[1-(2,2,2-trifluoroethyl)-1H-pyrazol-4-yl]amino}pyrimidine-5-carboxamide] |
| 0.15 | COc1cc2c(cc1Nc1ncc(C(N)=O)c(Nc3cc(C(F)(F)F)cc4c3CCNC4)n1)CN(C)CC2 [Example 7-66, 2-[(6-methoxy-2-methyl-1,2,3,4-tetrahydroisoquinolin-7-yl)amino]-4-{[7-(trifluoromethyl)-1,2,3,4-tetrahydroisoquinolin-5-yl]amino}pyrimidine-5-carboxamide] |
| 52.8 | COc1cc2c(cc1Nc1ncc(C(N)=O)c(NCc3cccc(C(F)(F)F)c3)n1)CN(C)CC2 [Example 26-35, 2-[(6-methoxy-2-methyl-1,2,3,4-tetrahydroisoquinolin-7-yl)amino]-4-({[3-(trifluoromethyl)phenyl]methyl}amino)pyrimidine-5-carboxamide] |
| 0.82 | COc1cc2c(cc1Nc1ncc(C(N)=O)c(Nc3c(F)cccc3C(C)O)n1)CN(C)CC2 (racemic) [Example 23-2, (RAC)-4-((2-fluoro-6-(1-hydroxyethyl)phenyl)amino)-2-((6-methoxy-2-methyl-1,2,3,4-tetrahydroisoquinolin-7-yl)amino)pyrimidine-5-carboxamide] |
| 0.34 | COc1cc2c(cc1Nc1ncc(C(N)=O)c(Nc3cccc(CN)c3)n1)CN(C)CC2 [Example 2-2, 4-{[3-(aminomethyl)phenyl]-amino}-2-[(6-methoxy-2-methyl-1,2,3,4-tetrahydroisoquinolin-7-yl)amino]pyrimidine-5-carboxamide] |
| 1.26 | COc1cc(C2CCCN2)ccc1Nc1ncc(C(N)=O)c(Nc2ccccc2C(F)(F)F)n1 (centres unmarked) [Example 8-1, 2-((2-Methoxy-4-(pyrrolidin-2-yl)phenyl)amino)-4-((2-(trifluoromethyl)phenyl)amino)pyrimidine-5-carboxamide] |
| 109 | COc1cc2c(cc1Nc1ncc(C(N)=O)c(N[C@H]3c4ccccc4C[C@H]3O)n1)CN(C)CC2 [Example 26-63, 4-{[(1S,2R)-2-hydroxy-2,3-dihydro-1H-inden-1-yl]amino}-2-[(6-methoxy-2-methyl-1,2,3,4-tetrahydroisoquinolin-7-yl)amino]pyrimidine-5-carboxamide] |
| 474 | NC(=O)c1cnc(Nc2ccc(C(F)(F)F)cc2)nc1Nc1cccc2c1CCNC2=O [Example 25-7, 4-[(1-oxo-1,2,3,4-tetrahydroisoquinolin-5-yl)amino]-2-{[4-(trifluoromethyl)phenyl]amino}pyrimidine-5-carboxamide] |
